Measurements from patent US20200095280A1, “Methods of using GM6 in diagnosing and treating Alzheimers disease” (Genervon Biopharmaceuticals LLC, priority 2016, published 2020).
Where no end group is shown, it is not given here.

Assay: Blood brain barrier transit: ELISA of brain homogenate after IV injection
Type: in vivo, C57BL6 mice
Conditions: single bolus IV 0.2 and 2.0 mg/kg, four hours; vs control P=0.0001
Procedure: The ability to transit to the brain was tested. C57BL6 mice were injected with a single bolus IV tail vein injection of GM6 at 0.2 and 2.0 mg/kg. At four hours, the animals were sacrificed, and half of the brain was frozen for ELISA analysis.

FSRYAR [GM6, FSRYAR]
GM6 in brain homogenate supernatant (ELISA): detected GM6 at statistically significant levels
